Species on record: Rattus norvegicus
Experiment: Open TG-GATES - Regimen: Single
Assay type: toxicity, organism-based, Sprague-Dawley
Parameters: regimen Single, gender Male, age 6 weeks
Details: in vivo, po, route gavage; for APTT / Bas / Eos / Fbg / Hb / Ht / Lym / MCH / MCHC / MCV / Mono / Neu / PT / Plat / RBC / Ret / WBC: tissue Blood; for KIDNEY_L / KIDNEY_R / KIDNEY_TOTAL: tissue Kidney; for LIVER: tissue Liver; for A/G / ALP / ALT / AST / BUN / CRE / Ca / Cl / DBIL / GLC / IP / K / LDH / Na / PL / RALB / TBIL / TC / TG / TP / gamma-GTP: tissue Plasma
[1] = 0 mg/kg, 3 h, dose level Control
[2] = 0 mg/kg, 6 h, dose level Control
[3] = 0 mg/kg, 9 h, dose level Control
[4] = 0 mg/kg, 24 h, dose level Control
[5] = 100 mg/kg, 24 h, dose level Low

## O=C(N[C@H](CO)[C@H](O)c1ccc([N+](=O)[O-])cc1)C(Cl)Cl [CHLORAMPHENICOL]
[1]
  TERMINAL_BW: 223.3 g
  APTT: 17.4 s
  Bas: 0%
  Eos: 1%
  Fbg: 266.4 mg/dL
  Hb: 13.2 g/dL
  Ht: 38.7%
  Lym: 79.8%
  MCH: 21.8 pg
  MCHC: 34.2%
  MCV: 63.8 fL
  Mono: 3.8%
  Neu: 15.2%
  PT: 14.3 s
  Plat: 115.3 x10_4/uL
  RBC: 607 x10_4/ul
  Ret: 8.3%
  WBC: 80.9 x10_2/uL
  KIDNEY_L: 0.9 g
  KIDNEY_R: 0.9 g
  KIDNEY_TOTAL: 1.8 g
  LIVER: 10.1 g
  A/G: 0.9
  ALP: 1566 IU/L
  ALT: 41.4 IU/L
  AST: 73.8 IU/L
  BUN: 9.4 mg/dL
  CRE: 0.2 mg/dL
  Ca: 11.6 mg/dL
  Cl: 105 meq/L
  DBIL: 0.012 mg/dL
  GLC: 184.2 mg/dL
  IP: 8.6 mg/dL
  K: 4.2 meq/L
  LDH: 57.6 IU/L
  Na: 139.8 meq/L
  PL: 136.2 mg/dL
  RALB: 2.5 g/dL
  TBIL: 0.062 mg/dL
  TC: 74.6 mg/dL
  TG: 66.4 mg/dL
  TP: 5.3 g/dL
  gamma-GTP: 1.2 IU/L
[2]
  TERMINAL_BW: 222.3 g
  APTT: 17.1 s
  Bas: 0%
  Eos: 0.8%
  Fbg: 262.8 mg/dL
  Hb: 13.3 g/dL
  Ht: 42.9%
  Lym: 72.2%
  MCH: 21.6 pg
  MCHC: 30.9%
  MCV: 70.1 fL
  Mono: 2.6%
  Neu: 24.2%
  PT: 14.6 s
  Plat: 109 x10_4/uL
  RBC: 613.2 x10_4/ul
  Ret: 8.2%
  WBC: 60.2 x10_2/uL
  KIDNEY_L: 0.9 g
  KIDNEY_R: 0.9 g
  KIDNEY_TOTAL: 1.8 g
  LIVER: 9.4 g
  A/G: 0.9
  ALP: 1343.8 IU/L
  ALT: 38.8 IU/L
  AST: 71.2 IU/L
  BUN: 8.8 mg/dL
  CRE: 0.2 mg/dL
  Ca: 11.6 mg/dL
  Cl: 105.2 meq/L
  DBIL: 0.014 mg/dL
  GLC: 187.6 mg/dL
  IP: 10.4 mg/dL
  K: 4.2 meq/L
  LDH: 62.8 IU/L
  Na: 141.8 meq/L
  PL: 136.2 mg/dL
  RALB: 2.5 g/dL
  TBIL: 0.064 mg/dL
  TC: 73.6 mg/dL
  TG: 72.2 mg/dL
  TP: 5.5 g/dL
  gamma-GTP: 1.4 IU/L
[3]
  TERMINAL_BW: 222.7 g
  APTT: 16.3 s
  Bas: 0%
  Eos: 1%
  Fbg: 256.4 mg/dL
  Hb: 13.5 g/dL
  Ht: 42.9%
  Lym: 71.2%
  MCH: 21.5 pg
  MCHC: 31.5%
  MCV: 68.1 fL
  Mono: 2.6%
  Neu: 25%
  PT: 14.5 s
  Plat: 114.3 x10_4/uL
  RBC: 630.2 x10_4/ul
  Ret: 8.4%
  WBC: 69.8 x10_2/uL
  KIDNEY_L: 0.9 g
  KIDNEY_R: 0.9 g
  KIDNEY_TOTAL: 1.9 g
  LIVER: 8.8 g
  A/G: 0.9
  ALP: 1165.4 IU/L
  ALT: 36 IU/L
  AST: 67.8 IU/L
  BUN: 8.6 mg/dL
  CRE: 0.2 mg/dL
  Ca: 11.2 mg/dL
  Cl: 105.4 meq/L
  DBIL: 0.012 mg/dL
  GLC: 192.6 mg/dL
  IP: 10.4 mg/dL
  K: 4.1 meq/L
  LDH: 74.4 IU/L
  Na: 140.6 meq/L
  PL: 145.8 mg/dL
  RALB: 2.5 g/dL
  TBIL: 0.068 mg/dL
  TC: 81.4 mg/dL
  TG: 49.6 mg/dL
  TP: 5.4 g/dL
  gamma-GTP: 1 IU/L
[4]
  TERMINAL_BW: 230.2 g
  APTT: 16.1 s
  Bas: 0%
  Eos: 1%
  Fbg: 264 mg/dL
  Hb: 13 g/dL
  Ht: 40.9%
  Lym: 80.6%
  MCH: 21.3 pg
  MCHC: 31.9%
  MCV: 66.6 fL
  Mono: 2.8%
  Neu: 15.2%
  PT: 14.3 s
  Plat: 120.8 x10_4/uL
  RBC: 614.4 x10_4/ul
  Ret: 7.6%
  WBC: 87.8 x10_2/uL
  KIDNEY_L: 1 g
  KIDNEY_R: 1 g
  KIDNEY_TOTAL: 2 g
  LIVER: 11.2 g
  A/G: 0.9
  ALP: 1650.8 IU/L
  ALT: 48.2 IU/L
  AST: 77 IU/L
  BUN: 15.4 mg/dL
  CRE: 0.2 mg/dL
  Ca: 11.7 mg/dL
  Cl: 103.6 meq/L
  DBIL: 0.012 mg/dL
  GLC: 191.6 mg/dL
  IP: 8.8 mg/dL
  K: 4.1 meq/L
  LDH: 88.8 IU/L
  Na: 141.2 meq/L
  PL: 155.2 mg/dL
  RALB: 2.6 g/dL
  TBIL: 0.056 mg/dL
  TC: 86.8 mg/dL
  TG: 72.6 mg/dL
  TP: 5.6 g/dL
  gamma-GTP: 1.2 IU/L
100 mg/kg, 3 h, dose level Low
  TERMINAL_BW: 219.7 g
  APTT: 16 s
  Bas: 0%
  Eos: 0.6%
  Fbg: 268.8 mg/dL
  Hb: 13.2 g/dL
  Ht: 38.6%
  Lym: 76.2%
  MCH: 21.9 pg
  MCHC: 34.3%
  MCV: 63.8 fL
  Mono: 3%
  Neu: 19.2%
  PT: 14.6 s
  Plat: 115.2 x10_4/uL
  RBC: 608.2 x10_4/ul
  Ret: 8.1%
  WBC: 83.6 x10_2/uL
  KIDNEY_L: 0.9 g
  KIDNEY_R: 0.9 g
  KIDNEY_TOTAL: 1.9 g
  LIVER: 9.6 g
  A/G: 0.8
  ALP: 1429.8 IU/L
  ALT: 43 IU/L
  AST: 74.2 IU/L
  BUN: 10.2 mg/dL
  CRE: 0.2 mg/dL
  Ca: 11.5 mg/dL
  Cl: 105 meq/L
  DBIL: 0.014 mg/dL
  GLC: 180.8 mg/dL
  IP: 8.7 mg/dL
  K: 4.2 meq/L
  LDH: 58.6 IU/L
  Na: 140.4 meq/L
  PL: 136.6 mg/dL
  RALB: 2.5 g/dL
  TBIL: 0.06 mg/dL
  TC: 78.4 mg/dL
  TG: 58.4 mg/dL
  TP: 5.4 g/dL
  gamma-GTP: 1.2 IU/L
100 mg/kg, 6 h, dose level Low
  TERMINAL_BW: 219.6 g
  APTT: 17.7 s
  Bas: 0%
  Eos: 0.8%
  Fbg: 283.6 mg/dL
  Hb: 13.4 g/dL
  Ht: 42.9%
  Lym: 78.2%
  MCH: 21.3 pg
  MCHC: 31.1%
  MCV: 68.5 fL
  Mono: 2.2%
  Neu: 18.2%
  PT: 14.7 s
  Plat: 106.7 x10_4/uL
  RBC: 627.6 x10_4/ul
  Ret: 7.9%
  WBC: 71.4 x10_2/uL
  KIDNEY_L: 1 g
  KIDNEY_R: 1 g
  KIDNEY_TOTAL: 1.9 g
  LIVER: 9.1 g
  A/G: 0.9
  ALP: 1362.6 IU/L
  ALT: 39.2 IU/L
  AST: 75.2 IU/L
  BUN: 9 mg/dL
  CRE: 0.2 mg/dL
  Ca: 11.4 mg/dL
  Cl: 105 meq/L
  DBIL: 0.012 mg/dL
  GLC: 176.8 mg/dL
  IP: 9.6 mg/dL
  K: 4.2 meq/L
  LDH: 89.4 IU/L
  Na: 141 meq/L
  PL: 126.2 mg/dL
  RALB: 2.5 g/dL
  TBIL: 0.066 mg/dL
  TC: 72.6 mg/dL
  TG: 48.4 mg/dL
  TP: 5.4 g/dL
  gamma-GTP: 1.2 IU/L
100 mg/kg, 9 h, dose level Low
  TERMINAL_BW: 221.1 g
  APTT: 16.6 s
  Bas: 0%
  Eos: 1%
  Fbg: 281.8 mg/dL
  Hb: 13.3 g/dL
  Ht: 42.4%
  Lym: 78.6%
  MCH: 21.2 pg
  MCHC: 31.3%
  MCV: 67.8 fL
  Mono: 2%
  Neu: 17.6%
  PT: 14.8 s
  Plat: 115.3 x10_4/uL
  RBC: 626.6 x10_4/ul
  Ret: 7.9%
  WBC: 61.1 x10_2/uL
  KIDNEY_L: 0.9 g
  KIDNEY_R: 0.9 g
  KIDNEY_TOTAL: 1.9 g
  LIVER: 9 g
  A/G: 0.9
  ALP: 1589.8 IU/L
  ALT: 38.8 IU/L
  AST: 67.2 IU/L
  BUN: 9 mg/dL
  CRE: 0.2 mg/dL
  Ca: 11.4 mg/dL
  Cl: 105.2 meq/L
  DBIL: 0.014 mg/dL
  GLC: 181 mg/dL
  IP: 10 mg/dL
  K: 4.2 meq/L
  LDH: 61.4 IU/L
  Na: 140.8 meq/L
  PL: 145.6 mg/dL
  RALB: 2.6 g/dL
  TBIL: 0.072 mg/dL
  TC: 83.2 mg/dL
  TG: 47.4 mg/dL
  TP: 5.5 g/dL
  gamma-GTP: 1 IU/L
[5]
  TERMINAL_BW: 224.4 g
  APTT: 16.8 s
  Bas: 0%
  Eos: 1%
  Fbg: 264.4 mg/dL
  Hb: 13.3 g/dL
  Ht: 41.6%
  Lym: 79.8%
  MCH: 21.4 pg
  MCHC: 32%
  MCV: 66.7 fL
  Mono: 3.6%
  Neu: 15%
  PT: 14.8 s
  Plat: 123 x10_4/uL
  RBC: 623.4 x10_4/ul
  Ret: 7%
  WBC: 81.1 x10_2/uL
  KIDNEY_L: 1 g
  KIDNEY_R: 1 g
  KIDNEY_TOTAL: 1.9 g
  LIVER: 9.4 g
  A/G: 0.9
  ALP: 1622.8 IU/L
  ALT: 48.2 IU/L
  AST: 80.4 IU/L
  BUN: 15 mg/dL
  CRE: 0.2 mg/dL
  Ca: 11.4 mg/dL
  Cl: 105.8 meq/L
  DBIL: 0.012 mg/dL
  GLC: 186.6 mg/dL
  IP: 8.6 mg/dL
  K: 4.1 meq/L
  LDH: 61.4 IU/L
  Na: 141.6 meq/L
  PL: 133 mg/dL
  RALB: 2.6 g/dL
  TBIL: 0.058 mg/dL
  TC: 76.8 mg/dL
  TG: 53.6 mg/dL
  TP: 5.6 g/dL
  gamma-GTP: 1 IU/L
